Ends that are not written are not given here.
What was measured:
lactobacilli = test: activity against lactobacilli (dairy starter culture); assay type: cell-based; details: dairy starter culture comprising lactobacilli
Source text: In separate experiments, the peptide AGG01 (SEQ ID NO: 7) or AG002 (SEQ ID NO: 8) is shown to be suitable for use in a dairy starter culture comprising lactobacilli, especially one or more Lactis spp., in particular one or more organisms selected individually or collectively from the group consisting of: L. helveticus, L. acidophilus, L. lactis, L. bugaricus and L. citrovorum, and especially L. acidophilus.

[1] = bioactivity of peptides in milk; details: 200 μg/ml, 37° C., 30 or 60 min, data not shown
E. coli DH5α = test: microbroth dilution method, peptide and antibiotic combination; assay type: cell-based; details: tetracycline or chloramphenicol, E. coli DH5α
Method: To determine whether or not antimicrobial peptides as described herein act in a synergistic manner with antibiotic compounds, a microbroth dilution method was performed against E. coli DH5α performed according to the guidelines of the National Committee for Clinical Laboratory Standards.

[2] = system: Salmonella choleraesuis (ATCC 14028)
[3] = system: Staphylococcus aureus (ATCC 25923)
[4] = system: Streptococcus equi equi (ATCC 9527)
[5] = system: Streptococcus agalactiae (ATCC 12927)
[6] = system: Candida albicans (ATCC 753)
[7] = system: all microorganisms tested; details: for antimicrobial activity against pathogens that cause mastitis (in words): S. uberis, E. coli, S. aureus and S. agalactiae
S. aureus = details: for activity against isolates (in words): S. aureus otitis externa isolates
S. schleiferi = details: for activity against isolates (in words): S. schleiferi otitis externa isolates
S. epidermis = details: for activity against isolates (in words): S. epidermis otitis externa isolates
S. pseudointermedin = details: for activity against isolates (in words): S. pseudointermedin otitis externa isolates
Pseudomonas aeruginosa = details: for activity against isolates (in words): Pseudomonas aeruginosa otitis externa isolates
[8] = heat resistance of antimicrobial peptides; details: 200 μg/ml; for antimicrobial bioactivity in phosphate buffer following heat treatment (in words): 10 mM phosphate buffer, up to 56° C. 30 min or 70° C. 15 min; for bioactivity in pasteurized milk following heat treatment (in words): pasteurised milk, up to 68° C. 30 min or 71.7° C. 20 sec, data not shown
milk proteases = test: Western blotting of CHO cell extracts incubated in bovine milk; details: CHO cell extract, 2 hr
Method: Western blotting of cell lysates was performed according to standard procedures to confirm expression of peptides in mammalian cells. Briefly, cell extracts and culture supernatants were obtained from CHO cells transfected with the vectors pCMV-SPORT6-AGG01 and pCMV-SPORT6-AGG02, resolved in 18% (w/v) SDS/polyacrylamide electrophoresis gels, transferred by electroblotting onto nitrocellulose membrane and either stained in Ponceau S or probed with polyclonal antisera. In a further example, cell extracts were incubated in bovine milk for 2 hrs prior to their preparation for electrophoresis, to determine stability in milk. Control samples comprises non-transfected CHO cell extracts and supernatants. Membranes were developed using polyclonal rabbit anti-mAGG01 serum that had been produced according to standard procedures, by immunizing rabbits with synthetic peptide (i.e., SEQ ID NO: 7).

S. uberis = details: both high and low salt concentrations

With “KRGLWESLKRKATKLGDDIRNTLRNFKIKFPVPRQ-NH2 [SEQ ID NO: 8]” the “activity against lactobacilli (in words)” value (lactobacilli) was “low activity against lactobacilli”, the “antimicrobial bioactivity in fresh milk (in words)” value [1] was “reduced or inhibited” and the “antimicrobial bioactivity in pasteurized milk (in words)” value [1] was “reduced or inhibited”. The “synergy with antibiotics (in words)” value (E. coli DH5α) was “act synergistically”, the MIC [2] was 9.32 ± 0.38 µg/mL and the MIC [3] was 5.44 ± 0.49 µg/mL. For the same substance, the MIC [4] was 4.85 ± 0.35 µg/mL, the MIC [5] was 1.2 µg/mL and the MIC [6] was 10.01 ± 0.47 µg/mL. For the same substance, the “antimicrobial activity against pathogens that cause mastitis (in words)” value [7] was “has antimicrobial activity”, the MIC (E. coli) was 8 to 32 µg/mL and the MIC (P. haemolytica) was 4 to 64 µg/mL. For the same substance, the MIC (P. multicoda) was 8 to 32 µg/mL, the MIC (B. bronchiseptica) was 32 µg/mL and the MIC (H. somnus) was 32 µg/mL. The MIC (A. pleuropneumoniae) was 16 µg/mL, the MIC (S. suis) was 4 to 8 µg/mL and the MIC (S. choleraesuis) was >64 µg/mL. For the same substance, the MIC (S. aureus) was 4 µg/mL, the “activity against isolates (in words)” value (S. aureus) was “especially strong activity” and the MIC (S. schleiferi) was 2 to 4 µg/mL. The “activity against isolates (in words)” value (S. schleiferi) was “especially strong activity”, the MIC (S. epidermis) was 2 µg/mL and the “activity against isolates (in words)” value (S. epidermis) was “especially strong activity”. For the same substance, the MIC (S. pseudointermedin) was 1 µg/mL, the “activity against isolates (in words)” value (S. pseudointermedin) was “especially strong activity” and the MIC (Pseudomonas aeruginosa) was 8 to 32 µg/mL. The “activity against isolates (in words)” value (Pseudomonas aeruginosa) was “slightly weaker activity”, the “antimicrobial bioactivity in phosphate buffer following heat treatment (in words)” value [8] was “retain their antimicrobial bioactivity” and the “bioactivity in pasteurized milk following heat treatment (in words)” value [8] was “reduced or inhibited”.
For “KRGFGKKLRKRLKKFRNSIKKRLKNFNVVIPIPLP-NH2 [SEQ ID NO: 7]”, the “activity against lactobacilli (in words)” value (lactobacilli) was “low activity against lactobacilli”, the “antimicrobial bioactivity in fresh milk (in words)” value [1] was “retained” and the “antimicrobial bioactivity in pasteurized milk (in words)” value [1] was “slightly reduced”. For the same substance, the “presence of peptide following incubation with bovine milk (Western blot, in words)” value (milk proteases) was “present”, the “synergy with antibiotics (in words)” value (E. coli DH5α) was “act synergistically” and the “inhibiting growth of and/or killing S. uberis (in words)” value (S. uberis) was “capable of inhibiting growth of and/or killing S. uberis”. The MIC [3] was 5.72 ± 0.37 µg/mL, the MIC [5] was 3.81 µg/mL and the MIC [6] was 5.48 ± 0.16 µg/mL. The “antimicrobial activity against pathogens that cause mastitis (in words)” value [7] was “exhibited antimicrobial activity”, the “MIC, active against all microorganisms tested” value ([7]; summary of Table 1) was “less than 10 μg/ml” and the MIC (E. coli) was 1 to 8 µg/mL. The “activity against isolates (in words)” value (E. coli; E. coli BRD/SRD isolates) was “especially strong activity”, the MIC (P. haemolytica) was 1 to 16 µg/mL and the “activity against isolates (in words)” value (P. haemolytica; P. haemolytica BRD/SRD isolates) was “possibly also against P. haemolytica”. The MIC (P. multicoda) was 16 µg/mL, the MIC (B. bronchiseptica) was 1 to 2 µg/mL and the “activity against isolates (in words)” value (B. bronchiseptica; B. bronchiseptica BRD/SRD isolates) was “especially strong activity”. For the same substance, the MIC (H. somnus) was 16 µg/mL, the “activity against isolates (in words)” value (H. somnus; H. somnus BRD/SRD isolates) was “weaker activity” and the MIC (A. pleuropneumoniae) was 8 µg/mL. The “activity against isolates (in words)” value (A. pleuropneumoniae; A. pleuropneumoniae BRD/SRD isolates) was “Intermediate activity”, the MIC (S. suis) was 16 to 32 µg/mL and the “activity against isolates (in words)” value (S. suis; S. suis BRD/SRD isolates) was “weaker activity”. The MIC (S. choleraesuis) was 4 to 8 µg/mL, the MIC (S. aureus) was 2 µg/mL and the “activity against isolates (in words)” value (S. aureus) was “especially strong activity”. For the same substance, the MIC (S. schleiferi) was 2 to 4 µg/mL, the “activity against isolates (in words)” value (S. schleiferi) was “especially strong activity” and the MIC (S. epidermis) was 1 µg/mL. The “activity against isolates (in words)” value (S. epidermis) was “especially strong activity”, the MIC (S. pseudointermedin) was 1 to 2 µg/mL and the “activity against isolates (in words)” value (S. pseudointermedin) was “especially strong activity”. For the same substance, the MIC (Pseudomonas aeruginosa) was 2 to 4 µg/mL, the “activity against isolates (in words)” value (Pseudomonas aeruginosa) was “Strong antimicrobial activity” and the “antimicrobial bioactivity in phosphate buffer following heat treatment (in words)” value [8] was “retain their antimicrobial bioactivity”. For the same substance, the “bioactivity in pasteurized milk following heat treatment (in words)” value [8] was “active in pasteurized milk, even following heat treatment”.

Reference: patent US20110209228A1, “METHOD OF TREATMENT USING ANTIMICROBIAL COMPOSITION” (priority 2008, published 2011)
